Measured values as given in the NIST ThermoML archive (doi:10.1021/je060271a).

Conditions: 283.15 K, Liquid, Vibrating tube method

CCCCC(=O)OCC(COC(=O)CCCC)(COC(=O)CCCC)COC(=O)CCCC [pentaerythritol tetrapentanoate]
Conditions | mass density [kg/m3]
21592 kPa | 1039.3
21628 kPa | 1039.2
21658 kPa | 1039.2
21689 kPa | 1039.3
21727 kPa | 1039.4
21760 kPa | 1039.4
21791 kPa | 1039.4
21822 kPa | 1039.5
21860 kPa | 1039.5
21891 kPa | 1039.5
21922 kPa | 1039.5
21954 kPa | 1039.5
21992 kPa | 1039.5
22024 kPa | 1039.5
22061 kPa | 1039.6
22093 kPa | 1039.7
22125 kPa | 1039.5
22164 kPa | 1039.5
22192 kPa | 1039.6
22231 kPa | 1039.6
22263 kPa | 1039.6
22302 kPa | 1039.7
22335 kPa | 1039.7
22367 kPa | 1039.8
22406 kPa | 1039.7
22439 kPa | 1039.8
22472 kPa | 1039.7
22512 kPa | 1039.8
22545 kPa | 1039.8
22579 kPa | 1039.8
22619 kPa | 1040
22654 kPa | 1039.9
22687 kPa | 1039.9
22721 kPa | 1039.9
22762 kPa | 1039.8
22796 kPa | 1040
22830 kPa | 1039.9
22871 kPa | 1040
22905 kPa | 1040
22947 kPa | 1039.9
22982 kPa | 1040.1
23016 kPa | 1039.9
23059 kPa | 1040
23094 kPa | 1040.1
23129 kPa | 1040.1
23164 kPa | 1040.2
23208 kPa | 1040.1
23243 kPa | 1040.3
23285 kPa | 1040.3
23321 kPa | 1040.3
23357 kPa | 1040.2
23394 kPa | 1040.2
23437 kPa | 1040.3
23473 kPa | 1040.2
23516 kPa | 1040.4
23553 kPa | 1040.3
23590 kPa | 1040.4
23635 kPa | 1040.3
23672 kPa | 1040.4
23709 kPa | 1040.5
23746 kPa | 1040.5
23790 kPa | 1040.5
23827 kPa | 1040.5
23872 kPa | 1040.5
23909 kPa | 1040.5
23947 kPa | 1040.5
24000 kPa | 1040.6
24048 kPa | 1040.5
24099 kPa | 1040.6
24162 kPa | 1040.7
24208 kPa | 1040.8
24238 kPa | 1040.7
24266 kPa | 1040.7
24299 kPa | 1040.8
24327 kPa | 1040.8
24360 kPa | 1040.9
24388 kPa | 1040.7
24416 kPa | 1040.9
24444 kPa | 1040.9
24478 kPa | 1040.9
24506 kPa | 1040.9
24535 kPa | 1041
24569 kPa | 1040.9
24598 kPa | 1041
24626 kPa | 1040.9
24660 kPa | 1040.9
24689 kPa | 1040.9
24718 kPa | 1041
24746 kPa | 1041
24781 kPa | 1041.2
24810 kPa | 1041
24845 kPa | 1041.1
24874 kPa | 1041.2
24903 kPa | 1041.1
24934 kPa | 1041.1
24964 kPa | 1041.1
24999 kPa | 1041
25028 kPa | 1041.2
25058 kPa | 1041.2
25088 kPa | 1041.2
25124 kPa | 1041.1
25154 kPa | 1041.2
25183 kPa | 1041.2
25219 kPa | 1041.3
25249 kPa | 1041.3
25279 kPa | 1041.3
25347 kPa | 1041.3
25380 kPa | 1041.4
25410 kPa | 1041.3
25441 kPa | 1041.5
25477 kPa | 1041.3
25508 kPa | 1041.3
25544 kPa | 1041.4
25575 kPa | 1041.5
25606 kPa | 1041.5
25642 kPa | 1041.6
25673 kPa | 1041.4
25705 kPa | 1041.4
25742 kPa | 1041.3
25775 kPa | 1041.5
25806 kPa | 1041.6
25837 kPa | 1041.5
25875 kPa | 1041.6
25907 kPa | 1041.6
25939 kPa | 1041.7
25977 kPa | 1041.6
26009 kPa | 1041.6
26041 kPa | 1041.6
26079 kPa | 1041.7
26111 kPa | 1041.7
26143 kPa | 1041.7
26176 kPa | 1041.8
26216 kPa | 1041.7
26249 kPa | 1041.8
26282 kPa | 1041.8
26315 kPa | 1041.8
26354 kPa | 1041.8
26388 kPa | 1041.9
26421 kPa | 1041.8
26461 kPa | 1041.9
26494 kPa | 1042
26528 kPa | 1041.8
26567 kPa | 1042
26601 kPa | 1041.9
26635 kPa | 1041.9
26669 kPa | 1042
26710 kPa | 1042
26744 kPa | 1042.1
26778 kPa | 1042.1
26818 kPa | 1042
26853 kPa | 1042.1
26893 kPa | 1042.1
26928 kPa | 1042.1
26963 kPa | 1042.2
26997 kPa | 1042.1
27039 kPa | 1042.2
27074 kPa | 1042.2
27110 kPa | 1042.3
27152 kPa | 1042.2
27187 kPa | 1042.3
